Reference: US20230000924A1, “COMPOSITIONS AND METHODS FOR GENERATION OF SINOATRIAL NODE-LIKE CELLS AND THEIR USE IN DRUG DISCOVERY” (Cornell University, priority 2019, published 2023)
Entries after “also recorded” stand apart in the source; their conditions may differ.

Legend:
SHOX2:GFP+ cells = assay: Epigenetic library screen for SHOX2:GFP+ cells; format: cell-based, human; conditions: condition 8, compound added at day 7, after 14 days of differentiation
Description: To quantify and purify SAN-like cells using this directed differentiation protocol, a dual knock-in SHOX2:GFP; MYH6:mCherry reporter line was created using CRISPR/Cas-based gene-targeting techniques (FIG. 6b). Immunofluorescence and FACS analyses confirmed the success of the protocol for generating putative hPSC-SAN cells, as condition 8 maximizes generation of SHOX2:GFP^+ cells (FIG. 1c, d). The sorted GFP^+ cells were enriched approximately 4000-fold for SHOX2 transcript levels compared to GFP^− cells (FIG. 1e), and most of the GFP^+ cells co-express ISL1 and HCN4, proteins closely associated with the development and function of SAN cells (FIG. 6b). To further enhance production of GFP^+ cells, we considered that SAN development may also be controlled epigenetically and performed an unbiased screen using a library of known epigenetic modulatory compounds. Cells were differentiated using condition 8 with compounds added at day 7 (FIG. 1f and FIG. 6c).
Pacemaker and cardiomyocyte induction. Differentiation was initiated 72 hours after plating when the culture was approximately 80% confluent. Step 1: Cells were differentiated with 1.5 μM CHIR99021 (CHIR, Stem-RD, Ch), 20 ng/mL BMP4 (B) and 20 ng/mL Activin A (AA) in RPMI (Cellgro) supplemented with B27 minus insulin, 2 mM GlutaMAX, 1× NEAA and 1× Pen/Strep for 3 days (RB27-INS). […]

hESC-SAN cells = assay: Ca2+-flux assay (calcium imaging) in hESC-SAN cells; format: cell-based, human; conditions: 1 μM ivabradine, recordings after 5 min vs baseline
Description: (§1) FIG. 2. Functional characterization of hPSC-SAN cells. a, Immunofluorescent co-staining of GFP with pacemaker-associated transcription factors (ISL1, TBX5 and NKX2.5) and ion channels (HCN4, Cav3.1, Cav1.3 and Cx30.2) in cells differentiated to day 30 or day 60. Scale bar=200 μM. b, qRT-PCR analysis using samples from GFP^+ (G+) or mCherry^+ (Ch+) cells at day 25 or day 45. n=3 independent experiments. Fold-change was normalized to undifferentiated hESC. c, Schematic for co-culture of hESC-derived ANs expressing eYFP-channelrhodopsin-2 with either hPSC-SAN or hESC-V; d, Immunofluorescence (left) and electron microscopy images (right) of hESC-AN and hPSC-SAN after 12 weeks of co-culture. Scale bar: 100 μM and 1 μM, respectively; e, Basal release of catecholamine was analyzed using an ELISA kit for AN alone, AN+hES-SAN and AN+hES-V conditions after 8 weeks of co-culture. n=3 independent experiments. f, Representative image of averaged action potentials recorded from an individual hPSC-SAN (left) and distribution (right) of dV/dtmax, APD30 and APD90 recorded used day 30 cells; g, Quantitative analysis of day 30 hPSC-SAN function in response to 1 μM ivabradine. Fold change in calcium transient amplitude (deltaF/F0) of hPSC-SAN or hESC-V cells before and after treatment with ivabradine (n=22 for hESC-SAN and =17 for hESC-V). *p<0.05 **p<0.01. t-test. Data are mean±s.e.m. […]

[1] = tested on: hESC-derived ventricular myocytes (hESC-V); assay: Ca2+-flux assay (calcium imaging) in hESC-derived ventricular myocytes; format: cell-based, human; conditions: cardiomyocyte (hESC-V) cultures, 1 μM ivabradine, recordings after 5 min vs baseline
Description: as §1

murine SAN = assay: Ex vivo murine atrial explants (SAN cell death, contraction rhythmicity)
Description: FIG. 15. […] Quantification of contraction rhythmicity of explants was calculated by the COV as described above.
FIG. 16. […] Quantification of contraction rhythmicity of explants was calculated by the COV as described above.
Thus, we used an ex vivo model to document the direct effect of Doxorubicin and Physcion on the murine SAN. Whole, intact atrial explants were incubated with 1 μM doxorubicin or 1 uM doxorubicin+20 μM Physcion for 3 hrs.

[2] = tested on: A549 human epithelial lung cancer cells; assay: Chemotherapeutic effect on A549 cells in culture; format: cell-based; conditions: 72 hrs
Description: FIG. 17. […] We tested the effects of Physcion and Physcion+Doxorubicin on A549 human epithelial lung cancer cells grown in culture. 5×10^4 cells were treated with varying doses of Doxorubicin and Physcion for 72 hrs.

hPSC-SAN cells = assay: Chemical screen and validation for rescue of DOXO toxicity in hPSC-SAN cells; format: cell-based, human
Description: The fold change was calculated by dividing the percentage of cleaved caspase-3^+ cells in GFP^+ or mCherry^+ cells in the DOXO-treated condition by the percentage of cleaved caspase-3^+ cells in GFP^+ or mCherry^+ cells in the DMSO-treated condition (n=10); b, Sensitivity of day 30 hiPSC-SAN cells derived from 48 hiPSC lines upon DOXO treatment. […] The fold change was calculated by dividing the percentage of cleaved caspase-3^+ cells in ISL1^+ cells in the DOXO-treated condition by the percentage of cleaved caspase-3^+ cells in ISL1^+ cells in the DMSO-treated condition. […] Data were normalized to non-DOXO treated cells (n=4). h, Quantification of cell toxicity on hPSC-SAN cells derived from sensitive iPSC lines after co-treatment with DOXO and either 10 μM physcion (n=3) or DMSO (n=4). *p<0.05 **p<0.01. t-test. Data are mean±s.e.m. Data were normalized to non-DOXO treated cells.
Day 35 cells were treated for 3 days with DOXO and small molecules.
1472 compounds were tested consisting of FDA-approved drugs and natural products. Hit targets were selected based on a reduced percent ratio of GFP^+ cleaved caspase-3^+/GFP^+ cells (FIG. 11a). The compounds that decreased the cell death rate by more than two-fold of the standard deviation below the average of DMSO-treated samples were selected as primary hits. […]

A549 xenograft tumors = assay: A549 xenograft mouse model; format: in vivo; conditions: IP once a week for two weeks
Description: FIG. 18. […] We tested the effects of Doxorubicin and Physcion using an A549 xenograft mouse model. Mice with A549 xenograft tumors were treated with vehicle, Doxorubicin, Physcion, or Doxorubicin plus Physcion. Doxorubicin and Physcion treatment was administered by IP injection once a week for two weeks, at a concentration of 4 mg/kg wt for both compounds.

[3] = 1 uM doxorubicin+20 μM Physcion, 3 hrs

Nc1cc(F)ccc1NC(=O)c1ccc(CNC(=O)/C=C/c2cccnc2)cc1 [chidamide]
percentage of GFP+ cells (SHOX2:GFP+ cells): ~50%

COc1cc2c(cc1OC)CC(=O)N(CCCN(C)C[C@H]1Cc3cc(OC)c(OC)cc31)CC2 [ivabradine, Ivabradine]
contractions and calcium activity (hESC-SAN cells): significant reduction | contractions and calcium activity [1]: no significant difference

COc1cc(O)c2c(c1)C(=O)c1cc(C)cc(O)c1C2=O [Physcion, physcion]
doxorubicin-induced SAN cell death of explants (murine SAN; [3]): blocks | doxorubicin-induced arrhythmic contractility of explants (murine SAN; [3]): blocks | contraction rhythmicity of explants (COV) (murine SAN; 1.5 μM Doxorubicin+20 μM Physcion): regained rhythmic contractions with minimal variance in periods between contractions | chemotherapeutic effects of Physcion alone [2]: does not exhibit chemotherapeutic effects | effect on chemotoxic effects of Doxorubicin ([2]; Physcion as high as 50 μM, varying doses of Doxorubicin): did not block; also recorded: did not inhibit | effective dose to rescue DOXO-induced cell toxicity (hPSC-SAN cells; hPSC-SAN cells, 0.16 μM DOXO, 3 days): 10 to 20 µM | toxicity levels in hPSC-SAN cells from sensitive iPSC lines (hPSC-SAN cells; three most sensitive iPSC lines, DOXO with 10 μM Physcion vs without): significant decrease in toxicity levels | tumor burden / growth (tumor wt. and volume), single agent (A549 xenograft tumors; 4 mg/kg): did not affect tumor growth | effect on chemotherapeutic effects of Doxorubicin in vivo (A549 xenograft tumors; Physcion plus Doxorubicin, 4 mg/kg each): did not block; also recorded: did not inhibit the chemotherapeutic effects of Doxorubicin
